Literature values in patent publication US20240024227A1, “CANNABIS PLANT DERIVED EXTRACELLULAR VESICLES AND THERAPEUTIC METHODS USING THE SAME” (UNIVERSITY OF FLORIDA RESEARCH FOUNDATION, INCORPORATED, priority 2020, published 2024).
Where two headings read alike, the source gives them in different places.

Details: IP approximately 300 μg

Compound | CBDa brain Cmax (ethanol Tween-80 solution) [ng/mg] | CBDa brain Cmax (vegetable oil) [ng/mg] | time of CBDa brain Cmax (vegetable oil or Tween-80) [min] | THCa levels in the brain
C=C(C)[C@@H]1CCC(C)=C[C@H]1c1c(O)cc(CCCCC)c(C(=O)O)c1O [CBDa, Cannabidiolic acid] | 13.2 | 2.0 | 30 | 
CCCCCc1cc2c(c(O)c1C(=O)O)[C@@H]1C=C(C)CC[C@H]1C(C)(C)O2 [THCa, tetrahydrocannabinolic acid] |  |  |  | below detection
